Converted amounts (≈) assume the structure as drawn. Read-outs that look alike come from different tables or passages of the source.
Key:
[1] = system: E. coli H1876 (fepA−, cir−, fiu−); experiment: Agar diffusion antibacterial susceptibility assay; type: cell-based, Escherichia coli; details: for Diameter of growth inhibition zones: E. coli H1876 (fepA−, cir−, fiu−), −Fe agar, 37° C., 24 hours; for zone of inhibition at 200 µM: Escherichia coli, 24 h, read-out: Diameter of growth inhibition zones
Description: (§1) All liquids and media were sterilized by autoclaving (121° C., 15 min) before use. All aqueous solutions and media were prepared using distilled, deionized, and filtered water (Millipore Milli-Q Advantage A10 Water Purification System). Luria broth (LB) was purchased from VWR. Mueller-Hinton No. 2 broth (MHII broth; cation adjusted) was purchased from Sigma-Aldrich (St. Louis, Mo.). Iron-deficient (—Fe) MHII broth was prepared by adding 0.8 mL of a 1 mg/mL sterile aq. solution of 2,2′-bipyridine to 49.2 mL of MHII broth. Iron-rich (+Fe) MHII broth was prepared by adding 0.8 mL of a 1 mg/mL sterile aq. solution of FeCl3 to 49.2 mL of MHII broth. Mueller-Hinton No. 2 agar (MHII agar; HiMedia Laboratories) was purchased from VWR. Iron-deficient (−Fe) MHII agar was prepared by adding 0.5 mL of a 1 mg/mL sterile aq. solution of 2,2′-bipyridine to 34 mL of melted MHII agar with gentle mixing. Iron-rich (+Fe) MHII agar was prepared by adding 0.5 mL of a 1 mg/mL sterile aq. solution of FeCl3 to 34 mL of melted MHII agar with gentle mixing. See also Wencewicz, T. A. Dissertation, University of Notre Dame, Notre Dame, Ind., 2011, for relevant techniques.
Antibacterial Susceptibility Testing by the Agar Diffusion Assay.
Antibacterial activity of the compounds was determined by a modified Kirby-Bauer agar diffusion assay. Overnight cultures of test organisms were grown in LB broth for 18-24 h and standard suspensions of […] were prepared in saline solution (0.9% NaCl) according to a 0.5 BaSO4 McFarland Standard. This standardized suspension (0.1 mL) was added to 34 mL of sterile, melted agar (−Fe or +Fe) tempered to 47-50° C. After gentle mixing, the inoculated agar media was poured into a sterile plastic petri dish (145 mm×20 mm) and allowed to solidify near a flame with the lid ajar for about 30 min. Wells of 9.0 mm diameter were cut from the petri dish agar and filled with exactly 50 μL of the test sample solution. The petri dish was incubated at 37° C. for 18-24 h and the inhibition zone diameters were measured (mm) with an electronic caliper after 24 h.

P. aeruginosa PAO1 = experiment: MIC90 by broth microdilution assay; type: cell-based; details: Pseudomonas aeruginosa, PAO1, 20 h, 37° C.
Description: (§2) ^aMIC90 values (μM) were determined using the broth microdilution method in Mueller-Hinton broth No. 2 (MHII) with visual end point analysis according to the CLSI guidelines (Methods for Dilution Antimicrobial Susceptibility Tests for Bacteria that Grow Aerobically, 8th ed. (Villanova, Pa., USA), Clinical and Laboratory Standards Institute (CLSI), 2009, approved standard document M07-A7). ^bEach compound was tested in triplicate.
as §1
(§3) Determination of MIC90 Values by the Broth Microdilution Assay.
(§4) Antibacterial activity of the compounds was determined by measuring their minimum inhibitory concentrations (MIC90's) using the broth microdilution method according to the Clinical and Laboratory Standards Institute (CLSI, formerly the NCCLS) guidelines. Each well of a 96-well microtiter plate was filled with 50 μL of sterile broth media (−Fe or +Fe). Each test compound was dissolved in DMSO making a 20 mM solution, and then diluted with sterile broth media (−Fe or +Fe) to 400 or 800 μM. Exactly 50 μL of the compound solution was added to the first well of the microtiter plate and 2-fold serial dilutions were made down each row of the plate. Exactly 50 μL of bacterial inoculum (5×10^5 CFU/mL in broth media) was then added to each well giving a total volume of 100 μL/well. The plate was incubated at 37° C. for 20 h and then each well was examined for bacterial growth. The MIC90 was recorded as the lowest compound concentration (μM) required to inhibit 90% of bacterial growth as judged by turbidity of the culture media relative to a row of wells filled with a DMSO standard.

P. aeruginosa KW799/wt = experiment: MIC90 by broth microdilution assay; type: cell-based; details: Pseudomonas aeruginosa, 20 h, 37° C.
Description: as §2, §1, §3, §4

P. aeruginosa KW799/61 = experiment: MIC90 by broth microdilution assay; type: cell-based; details: Pseudomonas aeruginosa, KW799/61, 20 h
Description: as §2, §1, §3, §4

[2] = system: K. pneumoniae ATCC 8303 X68; experiment: MIC90 by broth microdilution assay; type: cell-based; details: Klebsiella pneumoniae; for MIC90: ATCC8303, 20 h, K. pneumoniae ATCC 8303 X68, 37° C., 20 h; for MIC: ATCC8303, stated as inactive, read-out: MIC against K. pneumoniae
Description: as §2, §1, §3, §4

P. aeruginosa Pa4 = experiment: MIC90 by broth microdilution assay; type: cell-based; details: Pseudomonas aeruginosa, PA4, 20 h, 37° C.
Description: as §2, §1, §3, §4

[3] = −Fe (iron-deficient) MHII broth
[4] = read-out: MIC (MIC90), P. aeruginosa KW799/61, +Fe (iron-rich) MHII broth, 37° C.
[5] = read-out: MIC (MIC90), P. aeruginosa KW799/61, −Fe (iron-deficient) MHII broth, 37° C.

Row | Compound | Diameter of growth inhibition zones ([1]; 50 μL of 0.2 mM solution) | zone of inhibition at 200 µM [1] [mm] | MIC90 (P. aeruginosa PAO1; +Fe (iron-rich) MHII broth) [µM] | MIC90 (P. aeruginosa PAO1; [3]) [µM] | MIC90 (P. aeruginosa KW799/wt; +Fe (iron-rich) MHII broth) [µM] | MIC90 (P. aeruginosa KW799/wt; [3]) [µM] | MIC90 (P. aeruginosa KW799/61; [4]) [µM] | MIC90 (P. aeruginosa KW799/61; [5]) [µM] | MIC90 ([2]; +Fe (iron-rich) MHII broth) [µM] | MIC90 [2, 3] [µM] | MIC90 (P. aeruginosa Pa4; +Fe (iron-rich) MHII broth) [µM] | MIC90 (P. aeruginosa Pa4; [3]) [µM] | Diameter of growth inhibition zones ([1]; 50 μL of 0.1 mM solution) [mm] | MIC [2] [µM]
1 | CC1(C)S[C@@H]2[C@H](NC(=O)[C@H](N)c3ccc(O)cc3)C(=O)N2[C@H]1C(=O)O [Amoxicillin, reference compound] | 0 mm | 0 | > 200 | > 100 | > 200 | > 200 | 0.46 (≈ 0.168 µg/mL) | 0.39 (≈ 0.143 µg/mL) | 100 (≈ 36.5 µg/mL) | > 100 | > 200 | > 100 | – | –
2 | CC1(C)S[C@@H]2[C@H](NC(=O)[C@H](N)c3ccccc3)C(=O)N2[C@H]1C(=O)O [Ampicillin, reference compound] | 0 mm | 0 | > 200 | > 100 | > 200 | > 200 | 0.52 (≈ 0.182 µg/mL) | 0.78 (≈ 0.273 µg/mL) | > 200 | > 100 | > 200 | > 100 | – | –
3 | CC(=O)Oc1cccc(C(=O)NCCCC(CCCNC(=O)c2cccc(OC(C)=O)c2OC(C)=O)(CCCNC(=O)c2cccc(OC(C)=O)c2OC(C)=O)NC(=O)CCC(=O)NC(C(=O)NC2C(=O)N3C2SC(C)(C)C3C(=O)O)c2ccccc2)c1OC(C)=O (stereo not drawn) [Compound 10] | – | – | 50 (≈ 64.7 µg/mL) | 0.39 (≈ 0.505 µg/mL) | 33 (≈ 42.7 µg/mL) | 0.05 (≈ 0.0647 µg/mL) | 12.5 (≈ 16.2 µg/mL) | 0.067 (≈ 0.0867 µg/mL) | > 200 | > 100 | 25 (≈ 32.4 µg/mL) | 0.39 (≈ 0.505 µg/mL) | 0 | > 100
4 | CC(=O)Oc1cccc(C(=O)NCCCC(CCCNC(=O)c2cccc(OC(C)=O)c2OC(C)=O)(CCCNC(=O)c2cccc(OC(C)=O)c2OC(C)=O)NC(=O)CCC(=O)NC(C(=O)NC2C(=O)N3C2SC(C)(C)C3C(=O)O)c2ccc(O)cc2)c1OC(C)=O (stereo not drawn) [Compound 11] | 14p | – | 50 (≈ 65.5 µg/mL) | 0.39 (≈ 0.511 µg/mL) | 25 (≈ 32.8 µg/mL) | 0.05 (≈ 0.0655 µg/mL) | 12.5 (≈ 16.4 µg/mL) | 0.083 (≈ 0.109 µg/mL) | > 200 | > 100 | 25 (≈ 32.8 µg/mL) | 0.21 (≈ 0.275 µg/mL) | – | > 100

From patent publication US9302012B2, “Anti-bacterial siderophore-aminopenicillin conjugates” (University of Notre Dame Du Lac, priority 2012, dated 2016)
